pIC50: −log10 of the molar value.
Legend:
[1] = tested on: TBK1 + IKKε; test: TBK1 + IKKε cell assay: dose response inhibition of phospho-IRF3 @ Ser 386 in MDA-MB-468 cells after poly(I:C) stimulation; assay type: cell-based; settings: Homo sapiens, MDA-MB-468, MDA-MB-468 cells, reference inhibitor, read-out: IC50 of reference inhibitor in phospho-IRF3 cell assay
Text: Dose response inhibition of phospho-IRF3 @ Ser 386 cell/MDAMB468/INH/PHOS/IMAG/pIRF3
Although TBK1 and IKKε are mainly known as key substances in the innate immune response, recent findings have indicated a role for TBK1 and IKKε in Ras-induced oncogenic transformation. TBK1 was identified as RaIB effector in the Ras-like (RaI)-guanine nucleotide exchange factor (GEF) pathway that is required for Ras-induced transformation. TBK1 directly activates IRF3 which, on phosphorylation, homodimerises and translocates to the nucleus, where it activates processes associated with inflammation, immune regulation, cell survival and proliferation.
This assay has been developed in order to assess the efficacy/potency of TBK1/IKKε inhibitor compounds based on the immunocytochemical detection of nucleus-localised phospho-IRF3, a target directly downstream of TBK1. Treatment with polyinosine-polycytidylic acid (poly(I:C), a synthetic analogue of double-stranded RNA (dsRNA), a molecular pattern associated with viral infection and recognised by Toll-like receptor 3 (TLR3) is used to induce TBK1/IKKε activity and IRF3 phosphorylation at Ser386.
Day 1: MDA-MB-468 cells are detached using HyQ-Tase, counted and sown into a 384-well plate with TC surface and clear bottom in a density of 10,000 cells per well in a total volume of 35 μl of complete medium. Alternatively, the cells are sown directly from frozen glass vials.
Day 2: The cells are pre-treated with inhibitor compounds for 1 h prior to poly(I:C) stimulation. After incubation for 2 h with poly(I:C), the cells are fixed in (para)formaldehyde (PFA) and permeabilised using methanol (MeOH). The cells are then blocked and incubated with an anti-pIRF3 antibody at 4° C. overnight.
Day 3: The primary antibody is washed off, an AlexaFluor488-conjugated secondary antibody is added, the cells are contrast-stained with propidium iodide, followed by image acquisition on an IMX ultra-high content reader.
Plating medium=culture medium: • RPMI 1640, Invitrogen #31870 • 10% of FCS, Invitrogen #10270-106 • 2 mM Glutamax, Invitrogen #35050-038 • 1 mM sodium pyruvate, Invitrogen #11360 • 1% of Pen/Strep • 37° C., 5% of CO2
Plates: 384-well bottom cell culture plates with black/clear bottom, Falcon #35 3962 or Greiner #781090
Subcultivation: HyQ-Tase, Thermo Scientific (HyClone) # SV30030.01
Poly(I:C) (LMW), Invitrogen # tlrl-picw (prepare 20 mg/ml stock solution in sterile PBS, denature 30 min 55° C. in a water bath, slowly cool to RT, store at −20° C. in aliquots)
a 10-point dose-response curve with MSC2119074A-4=BX-795 is included in each experiment
Formaldehyde (methanol-free, 16%, ultrapure EM grade), Polysciences #18814 (storage RT), final conc.: 4%
Goat serum, PAA # B15-035 (storage 4° C., long term −20° C.), final conc.: 10%
BSA (IgG- and protease-free, 30%), US-Biological # A1317 (storage 4° C., long term −20° C.), final conc.: 2%
Tween 20 detergent, Calbiochem #655204 (storage RT), (prepare 10% stock solution in water; final conc.: 0.1%)
Anti-pIRF-3 rabbit mAb, Epitomics #2526-B (storage −20° C.), final conc.: 1:2000 in PBS/2% of BSA
Alexa Fluor goat-anti-rabbit-488, Invitrogen # A11034 or # A11008 (storage 4° C., dark), final conc.: 1:2000 in PBS/2% of BSA/0.1% of Tween
Propidium iodide (PI), Fluka #81845, 1 mg/ml in H2O (storage 4° C., dark), final conc.: 0.2 μg/ml
(1) Sow 10,000 cells/well/35μof complete RPMI +10% FCS into 384-well bottom cell culture plates with black / clear bottom,
(2) Incubate for 2 h at room temperature on the bench, followed by further incubation for 22 h at 37° C., 5% of CO2 and 90% RH. […]

[2] = target: T1, TANK binding kinase (TBK1) (Homo sapiens, UniProt Q9UHD2); test: TBK1 enzyme assay (384-well flashplate kinase assay); assay type: biochemical; settings: 10 μM ATP, 0.6 nM TBK1
T1 sequence (Q9UHD2 1-729): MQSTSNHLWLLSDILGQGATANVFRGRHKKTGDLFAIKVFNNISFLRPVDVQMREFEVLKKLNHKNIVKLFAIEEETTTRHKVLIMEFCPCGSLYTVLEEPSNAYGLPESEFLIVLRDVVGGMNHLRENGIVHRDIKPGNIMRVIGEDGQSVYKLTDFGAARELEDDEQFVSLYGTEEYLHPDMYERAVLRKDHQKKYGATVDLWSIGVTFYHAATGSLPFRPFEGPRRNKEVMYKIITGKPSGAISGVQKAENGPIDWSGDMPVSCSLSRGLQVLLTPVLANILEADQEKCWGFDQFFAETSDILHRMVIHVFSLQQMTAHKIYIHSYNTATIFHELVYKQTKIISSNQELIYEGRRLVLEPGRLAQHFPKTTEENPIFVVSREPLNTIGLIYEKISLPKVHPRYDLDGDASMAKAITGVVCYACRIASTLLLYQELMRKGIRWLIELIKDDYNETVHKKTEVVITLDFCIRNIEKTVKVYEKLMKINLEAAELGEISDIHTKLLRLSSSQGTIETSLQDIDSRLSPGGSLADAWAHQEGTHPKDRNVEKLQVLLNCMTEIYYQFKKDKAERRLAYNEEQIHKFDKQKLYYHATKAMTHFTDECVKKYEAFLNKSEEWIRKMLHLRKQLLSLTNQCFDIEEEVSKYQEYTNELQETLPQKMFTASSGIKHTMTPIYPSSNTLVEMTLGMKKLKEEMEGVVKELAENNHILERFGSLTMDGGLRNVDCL
Method: Test for the Inhibition of TBK1
(§1) The kinase assay is performed as 384-well flashplate assay (for example for Topcount measurement).
0.6 nM TANK binding kinase (TBK1), 800 nM biotinylated MELK-derived peptide (biotin-Ah-Ah-[…]) and 10 μM ATP (spiked with 0.25 μCi of ^33P-ATP/well) are incubated at 30° C. for 120 min in a total volume of 50 μl (10 mM MOPS, 10 mM Mg acetate, 0.1 mM EGTA, 1 mM DTT, 0.02% of Brij35, 0.1% of BSA, pH 7.5) with or without test compound. The reaction is stopped with 25 μl of 200 mM EDTA. After 30 min at room temperature, the liquid is removed, and each well is washed three times with 100 μl of 0.9% sodium chloride solution. Non-specific reaction is measured in the presence of 100 nM staurosporine. The radioactivity is measured in a Topcount (PerkinElmer). The results (for example IC50 values) are calculated using program tools provided by the IT Department (for example Assay-Explorer, Symyx). Cell Test

[3] = target: T2, IKKε (Homo sapiens, UniProt Q14164); test: IKKε kinase assay (384-well flashplate assay); assay type: biochemical; settings: 10 μM ATP, 1 nM IKKε; read-out: IKKε enzyme assay IC50
T2 sequence (Q14164 1-716): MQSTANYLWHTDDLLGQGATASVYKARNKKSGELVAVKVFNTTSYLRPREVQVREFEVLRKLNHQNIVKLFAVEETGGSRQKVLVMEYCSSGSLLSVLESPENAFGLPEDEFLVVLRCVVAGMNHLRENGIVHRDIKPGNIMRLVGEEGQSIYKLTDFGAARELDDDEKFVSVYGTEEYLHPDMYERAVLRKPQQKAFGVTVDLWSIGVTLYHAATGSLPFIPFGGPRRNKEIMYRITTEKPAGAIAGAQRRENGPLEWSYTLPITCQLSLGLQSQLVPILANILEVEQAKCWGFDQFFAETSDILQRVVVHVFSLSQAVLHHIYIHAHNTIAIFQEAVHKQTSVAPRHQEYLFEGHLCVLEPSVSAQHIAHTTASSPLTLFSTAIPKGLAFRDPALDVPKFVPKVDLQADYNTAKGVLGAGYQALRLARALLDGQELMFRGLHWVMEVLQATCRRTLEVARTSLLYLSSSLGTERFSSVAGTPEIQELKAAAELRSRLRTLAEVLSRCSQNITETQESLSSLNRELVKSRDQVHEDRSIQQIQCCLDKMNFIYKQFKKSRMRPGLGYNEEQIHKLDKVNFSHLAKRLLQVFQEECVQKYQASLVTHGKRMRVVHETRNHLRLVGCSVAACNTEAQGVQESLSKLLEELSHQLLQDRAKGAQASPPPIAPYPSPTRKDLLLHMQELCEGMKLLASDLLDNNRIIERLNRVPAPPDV
Method: Test for the Inhibition of IKKε
IKKε—Kinase Assay (IKKepsilon)
as §1
1 nM IKKε, 800 nM biotinylated IκKα(19-42) peptide (Biotin-C6-C6-[…]) and 10 μM ATP (spiked with 0.3 μCi of ^33P-ATP/well) are incubated at 30° C. for 2 hours in a total volume of 50 μl (10 mM MOPS, 10 mM Mg acetate, 0.1 mM EGTA, 1 mM dithiothreitol, 0.02% of Brij35, 0.1% of BSA, 0.1% of BioStab, pH 7.5) with or without test compound. The reaction is stopped using 25 μl of 200 mM EDTA. After 30 min at room temperature, the liquid is removed, and each well is washed three times with 100 μl of 0.9% sodium chloride solution. Non-specific reaction is determined in the presence of 3 μM MSC2119074 (BX-795). The radioactivity is measured using a Topcount (Perkin Elmer). The results (for example IC50 values) are calculated using program tools provided by the IT Department (for example AssayExplorer, Symyx).

pIC50 [1] | pIC50 [2] | pIC50 [3] | SMILES
 | 4.30 to 5.52 | 4.30 to 5.52 | COc1ccc2c(-c3ccc(OC4CCOCC4)c(C#N)c3)c[nH]c2n1 [Compound A3, 5-(6-methoxy-1H-pyrrolo[2,3-b]pyridin-3-yl)-2-tetrahydropyran-4-yloxybenzonitrile]
 | 4.30 to 5.52 | 4.30 to 5.52 | N#Cc1cc(-c2c[nH]c3ncc(Br)cc23)ccc1OC1CCOCC1 [Compound A5, 5-(5-bromo-1H-pyrrolo[2,3-b]pyridin-3-yl)-2-tetrahydropyran-4-yl-oxy-benzonitrile]
 | 4.30 to 5.52 | 4.30 to 5.52 | N#Cc1cc(-c2c[nH]c3ncc(Br)cc23)ccc1OCC1CC1 [Compound A14, 5-(5-bromo-1H-pyrrolo[2,3-b]pyridin-3-yl)-2-(cyclopropylmethoxy)benzonitrile]

More lines, now with the values behind:

SMILES | pIC50 [1] | pIC50 [2] | pIC50 [3]
O=C(NCCCNc1nc(Nc2cccc(NC(=O)N3CCCC3)c2)ncc1I)c1cccs1 [BX-795, reference compound] | 6.10 to 6.70 |  | 
COc1ccnc2[nH]cc(-c3ccc(OC4CCOCC4)c(C#N)c3)c12 [Compound A2, 5-(4-methoxy-1H-pyrrolo[2,3-b]pyridin-3-yl)-2-tetrahydropyran-4-yloxybenzonitrile] |  | 5.52 to 6.52 | 5.52 to 6.52
N#Cc1ccc(-c2cnc3[nH]cc(-c4ccc(OC5CCOCC5)c(C#N)c4)c3c2)cc1 [Compound A6, 5-[5-(4-cyanophenyl)-1H-pyrrolo[2,3-b]pyridin-3-yl]-2-tetrahydropyran-4-yloxybenzonitrile] |  | > 6.52 | 5.52 to 6.52
Cc1[nH]c2ncc(-c3cnn(C)c3)cc2c1-c1ccc(OC2CCOCC2)c(C#N)c1 [Compound A11, 5-[2-methyl-5-(1-methylpyrazol-4-yl)-1H-pyrrolo[2,3-b]pyridin-3-yl]-2-tetrahydropyran-4-yloxybenzonitrile] |  | > 6.52 | 5.52 to 6.52
N#Cc1cc(-c2c[nH]c3ncc(-c4cnn(C5CCN(S(=O)(=O)c6ccccc6)CC5)c4)cc23)cnc1OC1CCOCC1 [Compound A19, 5-[5-[1-[1-(benzenesulfonyl)-4-piperidyl]pyrazol-4-yl]-1H-pyrrolo[2,3-b]pyridin-3-yl]-2-tetrahydropyran-4-yloxypyridine-3-carbonitrile] |  | 5.52 to 6.52 | 5.52 to 6.52

Source: patent US9102675B2, “3-Cyanoaryl-1H-pyrrolo[2,3-B] pyridine derivatives” (MERCK PATENT GMBH, priority 2011, dated 2015)
